Biological target: purified recombinant IDO (Homo sapiens, UniProt P14902)
Test: Enzymatic IDO inhibition assay (Takikawa et al., modified; kynurenine by HPLC)
Type: biochemical
Conditions: result in words; oxidized dimeric analogues
Protocol: The enzymatic inhibition assays were performed as described by Takikawa et al. [Takikawa, O.; Kuroiwa, T.; Yamazaki, F.; Kido, R. J Biol Chem, 1988, 263, 2041-2048.] with some modifications. Briefly, the reaction mixture (100 μl) contained potassium phosphate buffer (100 mM, pH 6.5) ascorbic acid (20 mM), catalase (200 units/ml), methylene blue (10 μM), purified recombinant IDO (2 ng/μl), and L-Trp (200 μM). The inhibitors were serially diluted ranging from 0.1 to 1000 μM. The reaction was carried out at 37° C. for 60 min and stopped by the addition of 30% (w/v) trichloroacetic acid (40 μl). To convert the product of Trp dioxygenation by IDO, N-formylkynurenine, to spectroscopically detectable kynurenine, the tubes were incubated at 50° C. for 30 min, followed by a centrifugation at 10000 g for 20 min. Lastly, 100 μl of supernatant from each probe was transfered to another tube for HPLC analysis. The mobile phase for HPLC measurements consisted of 50% sodium citrate buffer (40 mM, pH 2.25) and 50% methanol with 400 μM SDS. The flow rate through the S5-ODS1 column was chosen to be 1 ml/min, and kynurenine was detected at a wavelength of 365 nm.

Chain of purified recombinant IDO (P14902 whole entry): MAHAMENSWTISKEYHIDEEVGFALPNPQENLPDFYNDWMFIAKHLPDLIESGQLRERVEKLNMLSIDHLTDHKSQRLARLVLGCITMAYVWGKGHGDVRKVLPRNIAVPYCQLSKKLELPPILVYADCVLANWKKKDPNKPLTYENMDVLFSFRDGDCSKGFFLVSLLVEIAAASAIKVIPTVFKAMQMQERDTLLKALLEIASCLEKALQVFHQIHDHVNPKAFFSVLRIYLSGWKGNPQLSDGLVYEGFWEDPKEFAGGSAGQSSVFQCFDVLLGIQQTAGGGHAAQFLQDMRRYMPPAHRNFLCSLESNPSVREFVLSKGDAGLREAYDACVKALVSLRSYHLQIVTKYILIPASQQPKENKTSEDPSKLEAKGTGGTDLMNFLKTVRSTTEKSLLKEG

activity in vitro | Structure (SMILES)
excellent activity | CCC(CC)CC1C=C(C2=CC(CC(CC)CC)c3ccccc3C2=O)C(=O)c2ccccc21 (centres unmarked) [Example 24]
excellent activity | CC(C)/C=C1/C=C(C2=C/C(=N\C(C)C)c3ccccc3C2=O)C(=O)c2ccccc21 [Example 23]

Source: US20110112282A1, “IDO INHIBITORS AND THERAPEUTIC USES THEREOF” (priority 2008, published 2011)
